Laboratory results: patent US20130289083A1, “IDO Inhibitors” (priority 2007, published 2013)
Read-outs that look alike come from different tables or passages of the source.

Key:
[1] = target: T1, murine IDO (Mus musculus, UniProt P28776); test: Cell based IDO/kynurenine assay in 293-T-Rex cells expressing murine IDO; conditions: cells expressing murine IDO, read-out: mIDO EC50
T1 construct: expressed in transfected cells; host or cells: 293-T-REx cells (Invitrogen), doxycycline-inducible CMV-tet promoter
T1 sequence (P28776 whole entry): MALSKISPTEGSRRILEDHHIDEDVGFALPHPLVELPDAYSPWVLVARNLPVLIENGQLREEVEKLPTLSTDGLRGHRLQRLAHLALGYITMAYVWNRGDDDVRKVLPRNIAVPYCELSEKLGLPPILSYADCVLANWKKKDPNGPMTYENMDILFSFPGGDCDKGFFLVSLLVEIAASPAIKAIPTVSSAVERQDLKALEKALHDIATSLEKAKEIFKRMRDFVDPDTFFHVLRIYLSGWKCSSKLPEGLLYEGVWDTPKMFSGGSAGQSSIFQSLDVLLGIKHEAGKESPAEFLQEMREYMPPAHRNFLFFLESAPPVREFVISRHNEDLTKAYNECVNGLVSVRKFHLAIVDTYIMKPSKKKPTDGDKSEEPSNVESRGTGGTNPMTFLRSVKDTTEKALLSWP
Protocol: Transfected cells were selected in DBZ medium (DMEM, 10% FBS, 1× Penicillin+Streptomycin, 2 mM L-glutamine, 5 μg/mL blasticidin and 25 μg/ml Zeocin) at 37° C. with a 5% CO2 in air atmosphere. Individual clones were isolated by limiting dilution cloning from these populations.
The cells incubated in Neutral medium serve as negative control of the assay. The cells incubated in Induction medium and without inhibitor serve as the positive control of the assay. The incubation is carried out for 16 h at 37° C. in a cell culture incubator. 200 μL of medium are transferred to U-bottom polypropylene 96-well plates containing 25 μL of 30% TCA, incubated 30 minutes at 60° C. and centrifuged at 3400 g for 5 minutes. 150 μL of the clear supernatant is transferred to a polystyrene 96-well plate containing 50 μL of 4% (w/v) of p-dimethylaminobenzaldehyde in acetic acid, incubated for 10 min. Kynurenine concentration is determined by measuring the absorbance at 480 nm.

[2] = target: purified human IDO protein (Homo sapiens, UniProt P14902); test: Enzymatic IDO assay (kynurenine production, absorbance 480 nm); conditions: recombinant human IDO, enzymatic activity
Chain of purified human IDO protein (P14902 whole entry P110S/E119G): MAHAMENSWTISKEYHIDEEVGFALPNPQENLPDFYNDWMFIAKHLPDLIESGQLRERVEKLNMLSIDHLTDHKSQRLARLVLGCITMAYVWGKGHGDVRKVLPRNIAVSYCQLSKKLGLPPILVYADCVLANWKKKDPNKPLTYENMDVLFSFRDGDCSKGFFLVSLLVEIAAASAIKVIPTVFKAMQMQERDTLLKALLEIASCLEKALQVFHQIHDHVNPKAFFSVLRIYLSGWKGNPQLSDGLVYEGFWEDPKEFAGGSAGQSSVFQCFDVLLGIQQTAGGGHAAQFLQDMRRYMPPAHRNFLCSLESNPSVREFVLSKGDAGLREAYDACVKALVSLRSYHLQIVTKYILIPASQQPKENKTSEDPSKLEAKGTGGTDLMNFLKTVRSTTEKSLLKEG

[3] = target: human IDO (Homo sapiens, UniProt P14902); test: Cell based IDO/kynurenine assay in IDO-293-T-Rex cells; conditions: kynurenine production, 293T cells expressing human IDO, read-out: hIDO EC50
Chain of human IDO (P14902 whole entry): as the sequence (P14902 whole entry P110S/E119G) above, with S110P, G119E counted along it
Outline: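 293-T-REx cells stably carrying doxycycline-inducible human or murine IDO were incubated with inhibitors in induction medium for 16 h at 37° C. Medium was TCA-treated at 60° C and reacted with p-dimethylaminobenzaldehyde. Kynurenine was quantified by absorbance at 480 nm.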

| Compound | EC50 ([1]; Table 15) | IC50 ([2]; hIDO IC50, Table 15) | EC50 ([3]; Table 15) | EC50 ([1]; Table 16) | IC50 ([2]; hIDO IC50, Table 16) | EC50 ([3]; Table 16) |
| --- | --- | --- | --- | --- | --- | --- |
| NOCc1csc2ccc(Cl)cc12 [compound 1743, O-((5-chlorobenzo[b]thiophen-3-yl)methyl)hydroxylamine] | 10 to 100 µM | < 10 µM | < 10 µM | – | – | – |
| NOCc1ccc2c(c1)OCO2 [compound 1744, O-(benzo[d][1,3]dioxol-5-ylmethyl)hydroxylamine] | 10 to 100 µM | < 10 µM | < 10 µM | – | – | – |
| NOCc1nc2ccccc2s1 [compound 1749, O-(benzo[d]thiazol-2-ylmethyl)hydroxylamine] | < 10 µM | < 10 µM | < 10 µM | – | – | – |
| NOCc1ccc2c(c1)OCCO2 [compound 1750, O-((2,3-dihydrobenzo[b][1,4]dioxin-6-yl)methyl)hydroxylamine] | 10 to 100 µM | 10 to 100 µM | < 10 µM | – | – | – |
| NOCCc1cccc([N+](=O)[O-])c1 [compound 1752, O-(3-nitrophenethyl)hydroxylamine] | – | – | – | < 10 µM | < 10 µM | < 10 µM |
| C=CCC(ON)c1cccc([N+](=O)[O-])c1 (stereo not drawn) [compound 1755, O-(1-(3-nitrophenyl)but-3-enyl)hydroxylamine] | – | – | – | < 10 µM | < 10 µM | < 10 µM |
| NOCc1cccc2ccccc12 [compound 1767, O-(naphthalen-1-ylmethyl)hydroxylamine] | – | – | – | 10 to 100 µM | < 10 µM | < 10 µM |
| NOCC1CCc2ccccc2O1 (stereo not drawn) [compound 1768, O-(chroman-2-ylmethyl)hydroxylamine] | < 10 µM | < 10 µM | < 10 µM | – | – | – |
| COc1ccc(OC)c(CON)c1 [compound 1771, O-(2,5-dimethoxybenzyl)hydroxylamine] | < 10 µM | < 10 µM | < 10 µM | – | – | – |
| NOCc1cc2ccccc2o1 [compound 1774, O-(benzofuran-2-ylmethyl)hydroxylamine] | < 10 µM | < 10 µM | < 10 µM | – | – | – |
| NOCc1cccc(C(F)(F)F)c1 [compound 1775, O-(3-(trifluoromethyl)benzyl)hydroxylamine] | – | – | – | < 10 µM | < 10 µM | < 10 µM |
| COc1ccc(CON)cc1 [compound 1815, O-(4-methoxybenzyl)hydroxylamine] | – | – | – | 10 to 100 µM | 10 to 100 µM | < 10 µM |
| NOCc1cccc(I)c1 [compound 1816, O-(3-iodobenzyl)hydroxylamine] | – | – | – | 10 to 100 µM | < 10 µM | < 10 µM |
| NOCc1ccccc1CON [compound 1822, O,O′-(1,2-phenylenebis(methylene))bis(hydroxylamine)] | – | – | – | 10 to 100 µM | 10 to 100 µM | 10 to 100 µM |
| NOCc1cccc(CON)c1 [compound 1823, O,O′-(1,3-phenylenebis(methylene))bis(hydroxylamine)] | – | – | – | < 10 µM | 10 to 100 µM | 10 to 100 µM |
| NOCc1cccc(N)c1 [compound 1824, 3-(aminooxymethyl)aniline] | 10 to 100 µM | 10 to 100 µM | < 10 µM | – | – | – |
| NOCc1cccc(-c2ccccc2)c1 [compound 1825, O-(biphenyl-3-ylmethyl)hydroxylamine] | 10 to 100 µM | < 10 µM | < 10 µM | – | – | – |
| NOCc1ccccc1-c1ccccc1 [compound 1827, O-(biphenyl-2-ylmethyl)hydroxylamine] | 10 to 100 µM | < 10 µM | < 10 µM | – | – | – |
| NOCc1cccc(NCc2ccccc2)c1 [compound 1828, 3-(aminooxymethyl)-N-benzylaniline] | 100 to 1000 µM | 100 to 1000 µM | 10 to 100 µM | – | – | – |

| Compound | EC50 ([1]; Table 15) | IC50 ([2]; hIDO IC50, Table 15) | EC50 ([3]; Table 15) | EC50 ([1]; Table 16) | IC50 ([2]; hIDO IC50, Table 16) | EC50 ([3]; Table 16) |
| --- | --- | --- | --- | --- | --- | --- |
| NOCc1cccc(Nc2ccccc2)c1 [compound 1829, 3-(aminooxymethyl)-N-phenylaniline] | < 10 µM | < 10 µM | < 10 µM | – | – | – |
| NOCc1ccccc1Nc1ccccc1 [compound 1871, 2-(aminooxymethyl)-N-phenylaniline] | 10 to 100 µM | < 10 µM | < 10 µM | – | – | – |
| NOCc1cccc(NCc2ccccc2)c1 [compound 1872, 3-(aminooxymethyl)-N-benzylaniline] | < 10 µM | < 10 µM | < 10 µM | – | – | – |
| N#Cc1cccc(CON)c1 [compound 1873, 3-(aminooxymethyl)benzonitrile] | < 10 µM | < 10 µM | < 10 µM | – | – | – |
| NOCc1cccc(-c2ccc(Cl)cc2)c1 [compound 1878, O-((4′-chlorobiphenyl-3-yl)methyl)hydroxylamine] | 10 to 100 µM | < 10 µM | < 10 µM | – | – | – |
| NOCc1ccccc1-c1ccc(Cl)cc1 [compound 1879, O-((4′-chlorobiphenyl-2-yl)methyl)hydroxylamine] | 10 to 100 µM | < 10 µM | < 10 µM | – | – | – |
| COC(=O)CCC(ON)c1ccccc1 (stereo not drawn) [compound 1880, methyl 4-(aminooxy)-4-phenylbutanoate] | 100 to 1000 µM | < 10 µM | < 10 µM | – | – | – |
| Cc1ccc(-c2cccc(CON)c2)cc1 [compound 1881, O-((4′-methylbiphenyl-3-yl)methyl)hydroxylamine] | 10 to 100 µM | 10 to 100 µM | < 10 µM | – | – | – |
| COc1ccc(-c2cccc(CON)c2)cc1 [compound 1882, O-((4′-methoxybiphenyl-3-yl)methyl)hydroxylamine] | 10 to 100 µM | < 10 µM | < 10 µM | – | – | – |
| COC(=O)C(ON)c1ccccc1 (stereo not drawn) [compound 1886, methyl 2-(aminooxy)-2-phenylacetate] | < 10 µM | < 10 µM | < 10 µM | – | – | – |
| NOCc1cccc(-c2ccncc2)c1 [compound 1888, O-(3-(pyridin-4-yl)benzyl)hydroxylamine] | 100 to 1000 µM | 10 to 100 µM | < 10 µM | – | – | – |
| NOCc1ccccc1-c1ccncc1 [compound 1889, O-(2-(pyridin-4-yl)benzyl)hydroxylamine] | 100 to 1000 µM | 10 to 100 µM | < 10 µM | – | – | – |
| NOCc1cc(Cl)ccc1-c1ccc(Cl)cc1 [compound 1892, O-((4,4′-dichlorobiphenyl-2-yl)methyl)hydroxylamine] | < 10 µM | < 10 µM | < 10 µM | – | – | – |
| NOCc1cc(Cl)cc(-c2ccc(Cl)cc2)c1 [compound 1893, O-((4′,5-dichlorobiphenyl-3-yl)methyl)hydroxylamine] | 10 to 100 µM | < 10 µM | < 10 µM | – | – | – |
| NOC1CCCc2ccccc21 (stereo not drawn) [compound 1895, O-(1,2,3,4-tetrahydronaphthalen-1-yl)hydroxylamine] | 10 to 100 µM | < 10 µM | < 10 µM | – | – | – |
| CNC(=O)C(ON)c1ccccc1 (stereo not drawn) [compound 1897, 2-(aminooxy)-N-methyl-2-phenylacetamide] | < 10 µM | < 10 µM | < 10 µM | – | – | – |
| CNC(=O)CCC(ON)c1ccccc1 (stereo not drawn) [compound 1898, 4-(aminooxy)-N-methyl-4-phenylbutanamide] | 10 to 100 µM | 10 to 100 µM | < 10 µM | – | – | – |
| NOc1cccc2ccccc12 [compound 1903, O-(naphthalen-1-yl)hydroxylamine] | 10 to 100 µM | < 10 µM | 10 to 100 µM | – | – | – |
| COc1ccc(-c2ccc(Cl)cc2CON)cc1 [compound 1914, O-((4-chloro-4′-methoxybiphenyl-2-yl)methyl)hydroxylamine] | 10 to 100 µM | < 10 µM | < 10 µM | – | – | – |
